# Measurements from article PMC3923439, “Anti-inflammatory properties of a novel peptide interleukin 1 receptor antagonist” (Journal of Neuroinflammation, 2014).
# Positions of bridges follow the written chain, without caps; N, C: chain ends. Chains are numbered I, II in the order given. No end group written: not given here.
# How the values were obtained:
# [1] = system: experimental autoimmune encephalomyelitis; assay: Experimental autoimmune encephalomyelitis; assay type: in vivo, rat; details: female Lewis rats
# Procedure: Experimental autoimmune enchephalomyelitis was induced in female Lewis rats by guinea pig myelin basic protein (MBP) emulsified with CFA (Sigma-Aldrich) that contained 1.0 mg/ml heat-inactivated M. tuberculosis. While the animals were under inhalation anesthesia (3% isoflurane; Baxter), 200 μl of an emulsion that contained 200 μg of MBP were subcutaneously injected at the tail base (dpi 0). Between dpi 0 and 21, weight and clinical signs of EAE were recorded daily for all of the animals. Clinical signs were scored as follows: 0 (no abnormality), 0.5 (weak tail), 1 (limp tail), 2 (mild palsy of one or both hind legs), 3 (severe palsy of one or both hind legs), 4 (complete paralysis of one or both hind legs), 5 (paralysis of one or both hindlimbs and the beginning of paralysis of the forelimbs) and 6 (moribund). Animals with a clinical score ≥4 were immediately killed. From dpi 10 forward, the animals were treated once daily for 5 consecutive days with Ilantide-t (10 mg/kg, 1 ml/kg, s.c.) or PBS (1.0 ml/kg s.c.). Only animals that reached a clinical score ≥1 before dpi 14 were included in the study.
# IL-1RI–IL-1β binding = molecular target: T1, IL-1RI–IL-1β binding (Homo sapiens, UniProt P14778); assay: SPR competition: binding of IL-1RI ectodomain to immobilized IL-1β in the presence of peptide; details: three experiments
# T1 construct: purchased R&D Systems
# T1 sequence (P14778 18-336 limits assumed): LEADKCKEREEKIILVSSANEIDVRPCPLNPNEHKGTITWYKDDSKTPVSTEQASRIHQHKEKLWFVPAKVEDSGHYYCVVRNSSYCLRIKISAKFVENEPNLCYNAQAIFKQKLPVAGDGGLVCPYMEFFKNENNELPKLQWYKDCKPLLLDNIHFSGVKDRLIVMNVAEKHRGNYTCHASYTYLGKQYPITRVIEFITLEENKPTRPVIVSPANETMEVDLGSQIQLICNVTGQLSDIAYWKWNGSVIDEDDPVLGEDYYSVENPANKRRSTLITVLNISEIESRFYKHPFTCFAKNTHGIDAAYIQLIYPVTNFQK
# Procedure: (§1) The binding analysis was performed using a Biacore 2000 instrument (GE Healthcare Life Sciences) that contained 150 mM NaCl as running buffer at 25°C with 10 mM sodium phosphate (pH 7.4). The flow rate was 5 μl/min during immobilization. Ilantide peptide, IL-1β or IL-1Ra was immobilized on a CM4 sensor chip according to the manufacturer’s instructions, after which the recombinant ectodomain of IL-1RI (R&D Systems) was injected. The neural cell adhesion molecule (NCAM) immunoglobulin modules 1 and 2 (Ig1 and Ig2) were used as a negative control protein [9]. The data were analyzed using nonlinear curve-fitting with the manufacturer’s software.
# Figure 2 Interaction between Ilantide, interleukin 1β, and interleukin 1 receptor antagonist and soluble IL-1 receptor type I. Binding was studied using surface plasmon resonance analysis. […] Binding is expressed as the response difference between the binding of IL-1 receptor type I (IL-1RI) to the sensor chip with the immobilized peptide, IL-1β, or IL-Ra and a blank sensor chip. […] The results from three experiments are expressed as mean RU ± SEM. **P < 0.01 and ***P < 0.001 compared with binding of IL-1RI alone to IL-1β (one-way analysis of variance followed by the Newman-Keuls post hoc test).
# [2] = system: LPS-induced neuroinflammation; assay: Lipopolysaccharide-induced impairment of social behavior; assay type: in vivo; details: rat
# Procedure: The peripheral administration of LPS, the active fragment of bacterial endotoxin, results in an increase in the plasma levels of all proinflammatory cytokines and behavioral depression. LPS-induced behavioral depression was assessed by measuring the reduction of the duration of social interaction during 4-minute sessions. Six- to seven-week-old rats were handled for five days, habituated to the test cages and the experiment room and trained for social interaction with three-week-old juvenile rats introduced into the test cage for four minutes two days before the actual experiment. On the day of the experiment, the rats were intraperitoneally injected (i.p.) with saline or LPS (Escherichia coli 0111:B4; Sigma-Aldrich) dissolved in saline (250 μg/kg). Immediately after the i.p. injection, Ilantide-t (Ila; 10 mg/kg, equivalent to 2.1 μmol/kg), Ana ([…], equivalent to 5.8 μmol/kg) or saline was injected subcutaneously. The volume of all of the injections was 1.0 ml/kg. Six experimental groups were used: vehicle i.p./vehicle s.c. (veh/veh; n = 10), vehicle i.p./Ilantide-t s.c. (veh/Ila; n = 8), vehicle i.p./Ana s.c. (veh/Ana; n = 9), LPS i.p./vehicle s.c. (LPS/veh; n = 10), LPS i.p./Ilantide-t s.c. (LPS/Ila; n = 11) and LPS i.p./Ana s.c. (LPS/Ana; n = 11). The injections and weighing of the rats were performed immediately after the first test session (0 h), and the animals were tested and weighed again 2, 4, 6, 8, and 24 hours later. Different juvenile animals were presented on each occasion. Social interaction consisted of anogenital sniffing, licking and chewing the fur of the juveniles by the experimental animals and was monitored with a video camera. […] The duration of social interaction at each time point is expressed as the percentage of baseline values and was averaged for each experimental group. Social interaction was scored by an observer who was blinded to the treatment of the animals. For evaluation of levels of pro- and anti-inflammatory cytokines in blood, rats were injected with LPS and then immediately with either vehicle (n = 8) or Ilantide-t (n = 8) as described above. In addition, a control group of animals (n = 4) was treated with Ilantide-t alone (control). Blood samples were collected at 0, 2 and 6 hours after injections as described for the pharmacokinetics study and stored at -20°C until use. The levels of IL-6, IFN-γ and IL-10 were determined using corresponding rat ELISA kits according to the manufacturer’s protocols (all from BD Biosciences, San Diego, CA, USA).
# ectodomain of IL-1RI = molecular target: T2, ectodomain of IL-1RI (Homo sapiens, UniProt P14778); assay: Surface plasmon resonance binding of immobilized ligand to recombinant IL-1RI ectodomain; details: SPR, Biacore 2000, ligand immobilized on CM4 chip, IL-1RI ectodomain injected, 25°C, pH 7.4
# T2 construct: the recombinant ectodomain of IL-1RI (R&D Systems) was injected; purchased R&D Systems
# T2 sequence (P14778 18-336 limits assumed): T1 sequence (P14778 18-336 limits assumed)
# Procedure: as §1
# [3] = 10 mg/kg s.c. once daily dpi 10 to 14
# [4] = 10 mg/kg s.c. once daily for 5 days
k d (ectodomain of IL-1RI),Substance,"Clinical signs of EAE [1, 3]","Effect on weight change or survival in EAE [1, 3]","Mean clinical signs of EAE versus vehicle, first and second days after onset [1, 4]","Mean clinical signs of EAE versus vehicle, later time points [1, 4]",Inhibition of binding between IL-1RI and IL-1β (IL-1RI–IL-1β binding),"IL-10 plasma levels ([2]; 2 hours after LPS administration, Ilantide-t 10 mg/kg s.c., ELISA, P < 0.01)","Plasma levels of proinflammatory cytokines (IL-6 and IFN-γ) ([2]; 6 hours following LPS injection, Ilantide-t 10 mg/kg s.c., ELISA, tendency toward reduction)","Effect on LPS-induced body weight decrease ([2]; 24 hours after LPS 250 μg/kg i.p., Ilantide-t 10 mg/kg, Ana 100 mg/kg s.c., P < 0.05)","Effect on LPS-induced depression of social activity (sickness behavior) ([2]; LPS 250 μg/kg i.p., Ilantide-t 10 mg/kg s.c., Ana 100 mg/kg s.c., 2 to 24 hours)"
–,"I: SGRKSSKMQAKK-NH2 / II: SGRKSSKMQAK / III: SGRKSSKMQA / IV: SGRKSSKMQA (amide I:11-IV:C, I:12-II:C, II:11-III:C; C-terminus assumed) [Ilantide-t]",attenuated,no significant effects,significantly lower,no difference,dose-dependently inhibited,increase in IL-10 plasma levels,not statistically significant,attenuated the anorexigenic effect of LPS,attenuated social depression
3.62 ± 0.65 × 10^-3 s^-1,IL-1Ra: recombinant interleukin 1 receptor antagonist purchased from R&D Systems,–,–,–,–,–,–,–,–,–
